Measured values taken from patent US8415469B2, “Compounds and methods for kinase modulation, and indications therefor” (Plexxikon Inc., priority 2005, dated 2013).

Experiments:
Type in all cases: biochemical
[1] = molecular target: T1, B-Raf (Homo sapiens, UniProt P15056); experiment: AlphaScreen kinase assay, B-Raf; conditions: read-out: IC50, activity toward kinase B-Raf
T1 construct: purchased Upstate Biotechnology

[2] = molecular target: T2, B-Raf V600E (Homo sapiens, UniProt P15056, V600E); experiment: AlphaScreen kinase assay, B-Raf V600E; conditions: read-out: IC50, activity toward kinase B-Raf V600E
T2 construct: P4254. pFastBacBD-CDC37 BRAF D437-K722-X, V600E; His6 with pFastBac HT leader (TEV site) (N); made in house; host or cells: Sf9 (baculovirus; chaperone CDC37 co-expressed)

[3] = molecular target: T3, Fak (Homo sapiens, UniProt Q05397); experiment: AlphaScreen kinase assay, Fak; conditions: read-out: IC50, activity toward kinase Fak
T3 construct: P1358.pFastBacHtb FAK S411-Q686-X; His6 with pFastBacHTb leader (TEV site) (N); made in house; host or cells: Sf9 (baculovirus)

[4] = molecular target: T4, FGFR1 (Homo sapiens, UniProt P11362, C488A/C584S); experiment: AlphaScreen kinase assay, FGFR1; conditions: read-out: IC50, activity toward kinase FGFR
T4 construct: P1351.pET N6 BI-PTP FGFR A458-E765-X C488A, C584S; made in house; host or cells: E. coli (PTP1B co-expressed)

[5] = molecular target: T5, Fms (Homo sapiens, UniProt P07333); experiment: AlphaScreen kinase assay, Fms; conditions: read-out: IC50, activity toward kinase Fms
T5 construct: purchased Upstate Biotechnology

[6] = molecular target: T6, Jnk1 (Homo sapiens, UniProt P45983); experiment: AlphaScreen kinase assay, Jnk1; conditions: read-out: IC50, activity toward kinase Jnk1
T6 construct: purchased Upstate Biotechnology

[7] = molecular target: T7, Jnk3 (Homo sapiens, UniProt P53779); experiment: AlphaScreen kinase assay, Jnk3; conditions: read-out: IC50, activity toward kinase Jnk3
T7 construct: purchased Upstate Biotechnology

[8] = molecular target: T8, Kit (Homo sapiens, UniProt P10721); experiment: AlphaScreen kinase assay, Kit; conditions: read-out: IC50, activity toward kinase Kit
T8 construct: P1332.N6 BI PTP KIT M552-K948-X COD; His6 (N); made in house; host or cells: E. coli (PTP1B co-expressed)

[9] = molecular target: T9, Src (Homo sapiens, UniProt P12931); experiment: AlphaScreen kinase assay, Src; conditions: read-out: IC50, activity toward kinase Src
T9 construct: P1144. pET-N6 BI-PTP SRC V86-L536-X; made in house

[10] = molecular target: T10, Stk6 (Homo sapiens, UniProt O14965); experiment: Z'-Lyte FRET kinase assay (Invitrogen), Stk6; conditions: read-out: IC50, activity toward kinase Stk6
T10 construct: purchased Invitrogen (Carlsbad, Calif.), screening service
T10 sequence (O14965 1-403): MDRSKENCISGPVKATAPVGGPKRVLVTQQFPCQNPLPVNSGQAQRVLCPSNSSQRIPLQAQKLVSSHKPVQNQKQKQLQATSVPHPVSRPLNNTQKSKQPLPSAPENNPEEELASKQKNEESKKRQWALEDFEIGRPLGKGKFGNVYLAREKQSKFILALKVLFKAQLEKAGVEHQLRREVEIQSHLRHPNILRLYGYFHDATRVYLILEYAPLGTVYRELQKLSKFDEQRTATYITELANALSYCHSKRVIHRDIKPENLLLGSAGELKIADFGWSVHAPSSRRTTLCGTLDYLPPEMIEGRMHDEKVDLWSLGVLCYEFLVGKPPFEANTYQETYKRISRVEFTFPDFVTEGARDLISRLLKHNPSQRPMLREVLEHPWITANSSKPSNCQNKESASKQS

[11] = molecular target: T11, Btk (Homo sapiens, UniProt Q06187); experiment: Z'-Lyte FRET kinase assay (Invitrogen), Btk; conditions: read-out: IC50, activity toward kinase Btk
T11 construct: purchased Invitrogen (assay run by Invitrogen)

[12] = molecular target: T12, Ret (Homo sapiens, UniProt P07949); experiment: AlphaScreen kinase assay, Ret; conditions: read-out: IC50, activity toward kinase Ret
T12 construct: P1378.pET-SF BI-PTP RET H661-R1012 HIS; made in house
T12 sequence (P07949 with tags, fused parts or gaps): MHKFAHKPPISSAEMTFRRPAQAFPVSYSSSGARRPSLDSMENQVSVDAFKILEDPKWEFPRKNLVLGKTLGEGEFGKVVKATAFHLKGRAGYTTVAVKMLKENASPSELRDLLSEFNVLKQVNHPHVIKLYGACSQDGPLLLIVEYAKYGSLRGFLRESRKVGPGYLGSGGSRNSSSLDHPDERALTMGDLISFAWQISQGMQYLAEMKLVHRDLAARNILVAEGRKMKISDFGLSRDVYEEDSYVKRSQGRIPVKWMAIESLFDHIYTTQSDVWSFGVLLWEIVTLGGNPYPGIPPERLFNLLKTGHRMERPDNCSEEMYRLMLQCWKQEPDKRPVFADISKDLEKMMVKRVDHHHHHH

[13] = molecular target: T13, Kdr (Homo sapiens, UniProt P35968); experiment: Z'-Lyte FRET kinase assay (Invitrogen), Kdr; conditions: read-out: IC50, activity toward kinase Kdr
T13 construct: purchased Invitrogen (assay run by Invitrogen)
Description: For example, direct radiometric, indirect FRET or AlphaScreen assays may be used to assess the level of phosphorylation of a substrate in the presence of test compounds in order to determine the inhibitory affect of the compound on the kinase. […] For these assays, compounds of the invention were screened by Invitrogen using Z′-Lyte™ kinase assay.
Briefly, the Invitrogen kinase assay involves use of a specific peptide substrate optimized for each kinase, containing a fluorophore at each end that make up the FRET pair. The peptide sensitivity to proteolytic cleavage depends on phosphorylation of the peptide. Non-phosphorylated peptide is cleaved by a protease while peptide phosphorylated by the kinase is not cleaved. Cleavage of the peptide disrupts the FRET between the donor (coumarin) and acceptor (fluorescein) fluorophores, resulting in an increase in the ratio of donor emission to acceptor emission. The emission ratio of coumarin to fluorescein is used to assess the reaction progress. […] Thus, the assay involves a kinase reaction in the presence of varying concentrations of a given compound, a development reaction with site specific protease, and detection of the fluorescent emission ratio of coumarin and fluorscein. […] Reaction conditions for each kinase are determined to provide optimal reaction times, incubation temperature, kinase and ATP concentrations. Test samples are made up in 1× kinase buffer (50 mM HEPES pH 7.5, 50 mM MgCl2, 5 mM EGTA, 0.05% BRIJ-35) and compound at desired concentration prepared in DMSO such that the final DMSO is 1%. […] All kinase except for MAP2K1 were at 10 μM ATP in the kinase reaction, while MAP2K1 was at 100 μM. Samples are mixed and the kinase reaction is incubated 1 hour at room temperature, after which 5 μl of development solution is added and mixed. After incubation for another 1 hour at room temperature, 5 μl of stop reagent is added to each sample and mixed. The fluorescence signals are measured to determine the emission ratio.

[14] = molecular target: T14, Flt1 (Homo sapiens, UniProt P17948); experiment: AlphaScreen kinase assay, Flt1; conditions: read-out: IC50, activity toward kinase Flt1
T14 construct: P1826.pETN6 BI-PTP FLT1 M799-D1165-X WT; His6 (N); made in house; host or cells: E. coli (PTP1B co-expressed)
T14 sequence (P17948 with tags, fused parts or gaps): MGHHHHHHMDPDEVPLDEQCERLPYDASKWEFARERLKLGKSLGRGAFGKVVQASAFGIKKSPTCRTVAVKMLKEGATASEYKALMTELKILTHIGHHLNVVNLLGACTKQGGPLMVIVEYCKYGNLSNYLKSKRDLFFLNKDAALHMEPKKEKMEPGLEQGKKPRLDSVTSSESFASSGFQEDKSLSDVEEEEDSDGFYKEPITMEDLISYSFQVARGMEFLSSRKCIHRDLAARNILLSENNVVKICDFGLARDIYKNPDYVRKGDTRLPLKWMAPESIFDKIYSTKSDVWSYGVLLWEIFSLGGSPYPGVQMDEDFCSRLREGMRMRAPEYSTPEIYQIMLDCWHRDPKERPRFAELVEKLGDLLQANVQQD

[15] = molecular target: T15, c-Raf-1 (Homo sapiens, UniProt P04049); experiment: AlphaScreen kinase assay, c-Raf-1; conditions: read-out: IC50, activity toward kinase c-Raf-1
T15 construct: purchased Upstate Biotechnology

Measured: IC50

T4 sequence (P11362 458-765 C488A/C584S): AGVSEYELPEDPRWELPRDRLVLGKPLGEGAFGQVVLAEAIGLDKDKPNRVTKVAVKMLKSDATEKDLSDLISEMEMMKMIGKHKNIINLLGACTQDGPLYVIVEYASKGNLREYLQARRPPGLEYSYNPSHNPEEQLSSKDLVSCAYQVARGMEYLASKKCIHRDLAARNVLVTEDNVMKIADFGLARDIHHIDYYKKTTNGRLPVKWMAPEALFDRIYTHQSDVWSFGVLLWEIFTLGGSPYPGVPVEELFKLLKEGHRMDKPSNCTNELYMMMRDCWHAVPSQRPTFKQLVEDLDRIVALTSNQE
T7 sequence (P53779 whole entry): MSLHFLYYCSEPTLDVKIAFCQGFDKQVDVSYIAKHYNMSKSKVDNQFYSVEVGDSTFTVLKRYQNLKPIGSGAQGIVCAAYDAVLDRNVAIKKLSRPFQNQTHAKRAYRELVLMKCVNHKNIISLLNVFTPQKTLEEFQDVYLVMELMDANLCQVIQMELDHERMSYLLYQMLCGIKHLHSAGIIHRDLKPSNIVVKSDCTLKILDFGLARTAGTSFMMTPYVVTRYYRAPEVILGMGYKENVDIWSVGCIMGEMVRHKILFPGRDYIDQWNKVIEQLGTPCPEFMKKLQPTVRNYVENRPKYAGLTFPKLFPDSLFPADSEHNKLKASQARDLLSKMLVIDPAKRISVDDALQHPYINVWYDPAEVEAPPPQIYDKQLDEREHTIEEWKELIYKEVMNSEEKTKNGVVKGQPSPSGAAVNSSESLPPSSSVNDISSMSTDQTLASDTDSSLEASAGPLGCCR
T1 sequence (P15056 whole entry): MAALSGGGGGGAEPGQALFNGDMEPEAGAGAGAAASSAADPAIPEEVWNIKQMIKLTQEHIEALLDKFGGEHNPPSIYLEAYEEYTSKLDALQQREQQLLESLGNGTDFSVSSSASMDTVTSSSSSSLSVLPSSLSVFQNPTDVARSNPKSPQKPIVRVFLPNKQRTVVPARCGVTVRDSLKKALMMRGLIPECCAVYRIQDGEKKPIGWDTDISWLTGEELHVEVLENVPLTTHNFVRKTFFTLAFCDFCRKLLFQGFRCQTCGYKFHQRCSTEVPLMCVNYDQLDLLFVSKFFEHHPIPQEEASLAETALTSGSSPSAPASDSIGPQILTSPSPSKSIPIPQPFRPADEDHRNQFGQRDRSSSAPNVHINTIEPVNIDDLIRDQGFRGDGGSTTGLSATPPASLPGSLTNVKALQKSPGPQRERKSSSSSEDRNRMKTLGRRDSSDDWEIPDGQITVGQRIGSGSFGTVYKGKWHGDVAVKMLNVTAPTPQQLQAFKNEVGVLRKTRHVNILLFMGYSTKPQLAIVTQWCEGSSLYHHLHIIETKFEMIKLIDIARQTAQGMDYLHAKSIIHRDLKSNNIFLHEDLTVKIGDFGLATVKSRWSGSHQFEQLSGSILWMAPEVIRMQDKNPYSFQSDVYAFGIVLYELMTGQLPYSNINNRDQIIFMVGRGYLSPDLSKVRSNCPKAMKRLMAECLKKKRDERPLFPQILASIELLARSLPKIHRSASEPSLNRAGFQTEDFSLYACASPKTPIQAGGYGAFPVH
T8 sequence (P10721 with tags, fused parts or gaps): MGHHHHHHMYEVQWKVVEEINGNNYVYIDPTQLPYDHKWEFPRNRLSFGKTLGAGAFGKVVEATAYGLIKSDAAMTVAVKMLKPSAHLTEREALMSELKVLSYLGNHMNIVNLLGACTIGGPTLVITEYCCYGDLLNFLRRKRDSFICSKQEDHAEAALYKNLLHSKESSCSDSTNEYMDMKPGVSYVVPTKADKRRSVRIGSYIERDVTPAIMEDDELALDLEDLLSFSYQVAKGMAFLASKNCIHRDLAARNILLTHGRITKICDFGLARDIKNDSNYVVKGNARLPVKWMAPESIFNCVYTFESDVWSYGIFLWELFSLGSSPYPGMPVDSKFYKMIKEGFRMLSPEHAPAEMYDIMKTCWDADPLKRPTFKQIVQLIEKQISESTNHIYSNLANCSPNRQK
T6 sequence (P45983 whole entry): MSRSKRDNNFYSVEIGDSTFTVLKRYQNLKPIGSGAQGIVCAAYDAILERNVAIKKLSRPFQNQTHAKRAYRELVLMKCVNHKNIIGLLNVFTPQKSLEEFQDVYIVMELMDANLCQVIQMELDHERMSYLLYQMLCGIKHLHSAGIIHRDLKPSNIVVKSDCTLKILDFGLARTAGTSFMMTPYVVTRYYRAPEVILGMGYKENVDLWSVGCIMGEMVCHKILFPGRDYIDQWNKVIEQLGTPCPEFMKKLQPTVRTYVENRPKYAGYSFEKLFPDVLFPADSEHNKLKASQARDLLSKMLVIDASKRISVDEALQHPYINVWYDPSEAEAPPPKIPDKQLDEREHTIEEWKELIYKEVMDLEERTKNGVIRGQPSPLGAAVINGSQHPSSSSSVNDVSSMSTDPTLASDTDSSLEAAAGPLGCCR
T2 sequence (P15056 with tags, fused parts or gaps V600E): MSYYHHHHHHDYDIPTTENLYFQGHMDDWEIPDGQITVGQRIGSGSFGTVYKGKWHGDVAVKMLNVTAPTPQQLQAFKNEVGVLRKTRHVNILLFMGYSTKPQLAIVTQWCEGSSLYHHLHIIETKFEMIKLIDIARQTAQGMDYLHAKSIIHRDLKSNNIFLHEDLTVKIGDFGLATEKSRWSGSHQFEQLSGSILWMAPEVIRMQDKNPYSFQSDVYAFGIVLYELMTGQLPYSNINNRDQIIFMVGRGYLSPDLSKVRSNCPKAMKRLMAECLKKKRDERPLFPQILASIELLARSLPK
T3 sequence (Q05397 411-686): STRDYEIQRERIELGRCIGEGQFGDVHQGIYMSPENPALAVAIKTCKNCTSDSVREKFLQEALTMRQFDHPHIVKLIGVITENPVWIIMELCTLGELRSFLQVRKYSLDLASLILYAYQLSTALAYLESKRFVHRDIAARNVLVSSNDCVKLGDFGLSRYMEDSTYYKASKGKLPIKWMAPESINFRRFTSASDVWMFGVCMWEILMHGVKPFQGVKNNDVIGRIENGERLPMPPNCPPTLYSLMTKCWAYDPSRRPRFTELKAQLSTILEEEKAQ
T15 sequence (P04049 whole entry): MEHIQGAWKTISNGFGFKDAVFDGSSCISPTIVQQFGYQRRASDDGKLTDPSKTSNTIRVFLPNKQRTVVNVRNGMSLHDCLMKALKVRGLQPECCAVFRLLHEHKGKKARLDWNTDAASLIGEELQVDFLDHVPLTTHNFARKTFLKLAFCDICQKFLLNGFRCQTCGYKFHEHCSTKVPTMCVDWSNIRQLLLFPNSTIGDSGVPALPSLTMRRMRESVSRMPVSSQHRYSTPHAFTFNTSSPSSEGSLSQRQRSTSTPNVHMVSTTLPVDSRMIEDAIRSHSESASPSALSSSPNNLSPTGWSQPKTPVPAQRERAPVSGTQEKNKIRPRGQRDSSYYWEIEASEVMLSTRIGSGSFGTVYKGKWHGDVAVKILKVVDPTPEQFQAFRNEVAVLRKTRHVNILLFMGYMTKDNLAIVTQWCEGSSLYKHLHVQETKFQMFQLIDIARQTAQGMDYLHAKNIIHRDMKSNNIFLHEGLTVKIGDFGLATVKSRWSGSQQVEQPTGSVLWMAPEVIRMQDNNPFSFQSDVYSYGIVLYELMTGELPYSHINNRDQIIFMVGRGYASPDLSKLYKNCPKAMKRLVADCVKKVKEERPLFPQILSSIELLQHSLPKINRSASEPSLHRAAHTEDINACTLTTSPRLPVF
T5 sequence (P07333 20-972): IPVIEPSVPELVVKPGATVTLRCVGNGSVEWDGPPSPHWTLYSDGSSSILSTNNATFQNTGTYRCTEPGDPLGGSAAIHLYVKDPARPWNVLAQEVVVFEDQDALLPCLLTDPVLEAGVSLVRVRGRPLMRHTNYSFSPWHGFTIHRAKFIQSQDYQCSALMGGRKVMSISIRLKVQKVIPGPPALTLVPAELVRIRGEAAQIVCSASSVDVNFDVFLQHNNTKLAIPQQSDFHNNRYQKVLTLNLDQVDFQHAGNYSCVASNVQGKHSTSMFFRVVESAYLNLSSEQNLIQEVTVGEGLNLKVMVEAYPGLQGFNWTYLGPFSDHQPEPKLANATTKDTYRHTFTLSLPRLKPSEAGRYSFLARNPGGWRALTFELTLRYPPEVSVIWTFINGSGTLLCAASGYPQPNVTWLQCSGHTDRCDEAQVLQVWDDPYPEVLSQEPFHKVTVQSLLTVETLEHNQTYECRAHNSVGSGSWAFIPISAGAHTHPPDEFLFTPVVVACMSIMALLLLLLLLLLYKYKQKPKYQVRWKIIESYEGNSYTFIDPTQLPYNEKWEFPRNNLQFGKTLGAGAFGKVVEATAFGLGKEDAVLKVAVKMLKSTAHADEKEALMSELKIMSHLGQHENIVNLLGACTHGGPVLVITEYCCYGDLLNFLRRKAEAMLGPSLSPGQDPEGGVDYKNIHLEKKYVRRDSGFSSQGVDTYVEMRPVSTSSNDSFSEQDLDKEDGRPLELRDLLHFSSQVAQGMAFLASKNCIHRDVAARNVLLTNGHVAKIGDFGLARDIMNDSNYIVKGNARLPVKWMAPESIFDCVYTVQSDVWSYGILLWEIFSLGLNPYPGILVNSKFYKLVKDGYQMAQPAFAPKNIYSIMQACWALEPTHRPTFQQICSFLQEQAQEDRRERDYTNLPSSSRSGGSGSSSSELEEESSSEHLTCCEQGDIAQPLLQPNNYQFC

NC(=O)c1cccc(-c2cnc3[nH]cc(C(=O)c4ccccc4O)c3c2)c1 [Compound P-1384]
not listed: [10] | [11] | [12] | [13] | [14] | [15]
≤ 10 µM: all other assays above

O=Cc1ccsc1-c1ccnc2[nH]ccc12 [Compound P-0276]
≤ 10 µM: [3] | [10]

CC(=O)Nc1cccc(-c2ccnc3[nH]cc(C(=O)c4ccccc4C)c23)c1 [Compound P-0314]
≤ 10 µM: [11] | [12]

CC(=O)Nc1cccc(-c2cnc3[nH]cc(Cc4ccccc4F)c3c2)c1 [Compound P-1347]
≤ 10 µM: [1] | [2] | [3] | [4] | [6] | [7] | [8] | [9]

Cc1ccccc1C(=O)c1c[nH]c2ncc(Br)cc12 [Compound P-0217]
≤ 10 µM: [11] | [4] | [8]

Fc1cccc(F)c1Cc1c[nH]c2ncc(-c3cccnc3)cc12 [Compound P-1477, 3-(2,6-Difluoro-benzyl)-5-pyridin-3-yl-1H-pyrrolo[2,3-b]pyridine]
≤ 10 µM: [1] | [2] | [3] | [4] | [5] | [7] | [9]

O=C(c1ccc(Cl)cc1)c1c[nH]c2ncc(-c3ccsc3)cc12 [Compound P-0321]
≤ 10 µM: [11] | [4] | [13] | [8] | [12]

O=C(Nc1cccc(Cc2c[nH]c3ncc(-c4cccnc4)cc23)c1)NC1CCCC1 [Compound P-1446, 1-Cyclopentyl-3-[3-(5-pyridin-3-yl-1H-pyrrolo[2,3-b]pyridin-3-ylmethyl)-phenyl]-urea]
≤ 10 µM: [1] | [2] | [3] | [4] | [14] | [6] | [8] | [9]

CC(=O)Nc1cccc(-c2ccnc3[nH]cc(C(=O)c4cc(F)ccc4F)c23)c1 [Compound P-0280]
≤ 10 µM: [11] | [12]

CCCS(=O)(=O)Nc1cccc(C(=O)c2c[nH]c3ncc(OC)cc23)c1F [Compound P-1256, Propane-1-sulfonic acid [2-fluoro-3-(5-methoxy-1H-pyrrolo[2,3-b]pyridine-3-carbonyl)-phenyl]-amide]
not listed: [5] | [7] | [10] | [11] | [12] | [13]
≤ 10 µM: all other assays above

Cc1ccc(F)cc1C(=O)c1c[nH]c2ncc(-c3ccc(Cl)cc3)cc12 [Compound P-0304]
≤ 10 µM: [11] | [4] | [8] | [12]

COc1cc(OC)cc(C(=O)c2c[nH]c3ncc(-c4cccc(NC(C)=O)c4)cc23)c1 [Compound P-1420, N-{3-[3-(3,5-Dimethoxy-benzoyl)-1H-pyrrolo[2,3-b]pyridin-5-yl]-phenyl}-acetamide]
≤ 10 µM: [1] | [2] | [11] | [4] | [14] | [5] | [8]

CCCCS(=O)(=O)Nc1cccc(C(=O)c2c[nH]c3ncc(Cl)cc23)c1F [Compound P-1250, Butane-1-sulfonic acid [3-(5-chloro-1H-pyrrolo[2,3-b]pyridine-3-carbonyl)-2-fluoro-phenyl]-amide]
not listed: [6] | [7] | [10] | [11] | [12] | [13]
≤ 10 µM: all other assays above

CCCS(=O)(=O)Nc1ccc(F)c(C(=O)c2c[nH]c3ncc(OC)cc23)c1 [Compound P-1433]
not listed: [7] | [10] | [11] | [12] | [13]
≤ 10 µM: all other assays above

NC(=O)c1ccc(-c2cnc3[nH]cc(Cc4ccccc4F)c3c2)cc1 [Compound P-1348]
≤ 10 µM: [1] | [2] | [3] | [4] | [6] | [7] | [8] | [9]

COc1ccc(F)c(C(=O)c2c[nH]c3ncc(-c4ccccc4)cc23)c1 [Compound P-0351]
≤ 10 µM: [1] | [2] | [11] | [4] | [5] | [12]
